Experimental data taken from article PMC10999543, “Identification of kinase modulators as host-directed therapeutics against intracellular methicillin-resistant Staphylococcus aureus” (Frontiers in Cellular and Infection Microbiology, 2024).
Like-named read-outs stand apart in the source and are kept apart here.

Columns and labels:
intracellular MRSA = format: cell-based, Staphylococcus aureus; details: for %GFP+ rep 1 / z-scoreMRSA+ rep 1: replicate 1; for %GFP+ rep 2 / z-scoreMRSA+ rep 2: replicate 2; for %GFP+ rep 3 / z-scoreMRSA+ rep 3: replicate 3; for z-scoreMRSA+ mean: mean of 3 replicates
How it was run: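 HeLa cells infected with GFP-MRSA (MOI ~6.8), gentamicin-cleared, then incubated overnight at 37°C with inhibitors plus 5 µg/ml gentamicin; DMSO as negative control, triplicates. Flow cytometry gave % GFP-positive cells and cell count (viability surrogate); hits by plate z-score (MRSA ≤ -2, HeLa count ≥ -3).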

HeLa cells = assay: Compound screen by flow cytometry: HeLa cell count as surrogate readout of cell viability (z-scoreHeLa); format: cell-based, human
How it was run: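 HeLa cells were infected with GFP-MRSA (mean MOI 6.8 ± 4.6) for 1 h, and extracellular bacteria were killed with 30 µg/ml gentamicin. Cells were then incubated overnight with kinase inhibitors in 5 µg/ml gentamicin, in triplicate against DMSO controls. Flow-cytometric cell count served as a viability surrogate, expressed as a plate z-score.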

[1] = PKIS compound screen raw data, MRSA-infected HeLa cells
[2] = Yes/No: effect without cell death
[3] = compound screen, MRSA-infected HeLa cells
[4] = PKIS compound screen raw data, HeLa cell count, replicate 1
[5] = PKIS compound screen raw data, HeLa cell count, replicate 2
[6] = PKIS compound screen raw data, HeLa cell count, replicate 3
[7] = compound screen, HeLa cell count, mean of 3 replicates
[8] = compound screen, HeLa cell count, replicate 1
[9] = compound screen, HeLa cell count, replicate 2
[10] = compound screen, HeLa cell count, replicate 3
[11] = PKIS compounds raw data, MRSA-infected HeLa cells
[12] = PKIS compounds raw data, replicate 1, HeLa cell count
[13] = PKIS compounds raw data, replicate 2, HeLa cell count
[14] = PKIS compounds raw data, replicate 3, HeLa cell count
[15] = PKIS compound screen, Yes/No call

For Cc1ccnc2ccc(-c3sc(N)nc3-c3ccccn3)nc12 [GW777257X], the “%GFP+ rep 1” value (intracellular MRSA; [1]) was 20.9%, the “%GFP+ rep 2” value (intracellular MRSA; [1]) was 19.0% and the “%GFP+ rep 3” value (intracellular MRSA; [1]) was 19.9%. For the same molecule, the effect (intracellular MRSA; Yes/No call from z-scoreMRSA+) was “No”, the hit (intracellular MRSA; [2]) was “No” and the “z-scoreMRSA+ mean” value (intracellular MRSA; [3]) was -0.86. The “z-scoreMRSA+ rep 1” value (intracellular MRSA; [3]) was -1.02, the “z-scoreMRSA+ rep 2” value (intracellular MRSA; [3]) was -0.88 and the “z-scoreMRSA+ rep 3” value (intracellular MRSA; [3]) was -0.69. For the same molecule, the “cell count rep 1” value (HeLa cells; [4]) was 3590, the “cell count rep 2” value (HeLa cells; [5]) was 3185 and the “cell count rep 3” value (HeLa cells; [6]) was 3623. The cell death (HeLa cells; Yes/No call from z-scoreHeLa) was “No”, the z-scoreHeLa mean (HeLa cells; [7]) was -0.81 and the “z-scoreHeLa rep 1” value (HeLa cells; [8]) was -0.55. For the same molecule, the “z-scoreHeLa rep 2” value (HeLa cells; [9]) was -0.86 and the “z-scoreHeLa rep 3” value (HeLa cells; [10]) was -1.02.
Clc1ccc(CNc2nccc(-c3cnn4ncccc34)n2)cc1 [GW781673X] was tested, and the “%GFP+ rep 1” value (intracellular MRSA; [11]) was 13.1%, the “%GFP+ rep 2” value (intracellular MRSA; [11]) was 14.6% and the “%GFP+ rep 3” value (intracellular MRSA; [11]) was 14.3%. The effect (intracellular MRSA; Yes/No call from z-scoreMRSA+) was “No”, the hit (intracellular MRSA; [2]) was “No” and the “z-scoreMRSA+ mean” value (intracellular MRSA; [3]) was -0.04. The “z-scoreMRSA+ rep 1” value (intracellular MRSA; [3]) was -0.0227, the “z-scoreMRSA+ rep 2” value (intracellular MRSA; [3]) was 0.37 and the “z-scoreMRSA+ rep 3” value (intracellular MRSA; [3]) was -0.47. For the same molecule, the “cell count rep 1” value (HeLa cells; [12]) was 3767, the “cell count rep 2” value (HeLa cells; [13]) was 3267 and the “cell count rep 3” value (HeLa cells; [14]) was 5990. For the same molecule, the cell death (HeLa cells; Yes/No call from z-scoreHeLa) was “No”, the z-scoreHeLa mean (HeLa cells; human) was -0.71 and the “z-scoreHeLa rep 1” value (HeLa cells; human) was -0.91. For the same molecule, the “z-scoreHeLa rep 2” value (HeLa cells; human) was -0.76 and the “z-scoreHeLa rep 3” value (HeLa cells; human) was -0.46.
For COc1cccc(-n2ncc3c(N/N=C/c4ccncc4)ncnc32)c1 [GW784752X], the effect (intracellular MRSA; [15]) was “No”, the hit (intracellular MRSA; PKIS compound screen, Yes/No call (effect without cell death)) was “No” and the “z-scoreMRSA+ mean” value (intracellular MRSA; PKIS compound screen) was -0.71. For the same molecule, the “z-scoreMRSA+ rep 1” value (intracellular MRSA; PKIS compound screen) was -0.44, the “z-scoreMRSA+ rep 2” value (intracellular MRSA; PKIS compound screen) was -0.63 and the “z-scoreMRSA+ rep 3” value (intracellular MRSA; PKIS compound screen) was -1.06. For the same molecule, the “%GFP+ rep 1” value (intracellular MRSA; [11]) was 11.8%, the “%GFP+ rep 2” value (intracellular MRSA; [11]) was 11.6% and the “%GFP+ rep 3” value (intracellular MRSA; [11]) was 12.3%. The cell death (HeLa cells; [15]) was “No”, the z-scoreHeLa mean (HeLa cells; PKIS compound screen, mean of 3 replicates) was -0.20 and the “z-scoreHeLa rep 1” value (HeLa cells; PKIS compound screen, replicate 1) was -0.77. The “z-scoreHeLa rep 2” value (HeLa cells; PKIS compound screen, replicate 2) was -0.44, the “z-scoreHeLa rep 3” value (HeLa cells; PKIS compound screen, replicate 3) was 0.60 and the “cell count rep 1” value (HeLa cells; [12]) was 3928. The “cell count rep 2” value (HeLa cells; [13]) was 3683 and the “cell count rep 3” value (HeLa cells; [14]) was 8225.
Cc1c2ccc(N(C)c3ccnc(Nc4cccc(S(N)(=O)=O)c4)n3)cc2nn1Cc1ccccc1 [GW787226A] was tested, and the “%GFP+ rep 1” value (intracellular MRSA; [1]) was 21.6%, the “%GFP+ rep 2” value (intracellular MRSA; [1]) was 20.6% and the “%GFP+ rep 3” value (intracellular MRSA; [1]) was 18.5%. The effect (intracellular MRSA; Yes/No call from z-scoreMRSA+) was “No”, the hit (intracellular MRSA; [2]) was “No” and the “z-scoreMRSA+ mean” value (intracellular MRSA; [3]) was -0.82. For the same molecule, the “z-scoreMRSA+ rep 1” value (intracellular MRSA; [3]) was -0.86, the “z-scoreMRSA+ rep 2” value (intracellular MRSA; [3]) was -0.49 and the “z-scoreMRSA+ rep 3” value (intracellular MRSA; [3]) was -1.11. For the same molecule, the “cell count rep 1” value (HeLa cells; [4]) was 1356, the “cell count rep 2” value (HeLa cells; [5]) was 1496 and the “cell count rep 3” value (HeLa cells; [6]) was 1271. The cell death (HeLa cells; Yes/No call from z-scoreHeLa) was “No”, the z-scoreHeLa mean (HeLa cells; [7]) was -2.28 and the “z-scoreHeLa rep 1” value (HeLa cells; [8]) was -2.16. The “z-scoreHeLa rep 2” value (HeLa cells; [9]) was -2.16 and the “z-scoreHeLa rep 3” value (HeLa cells; [10]) was -2.51.
In the case of O=C(c1ccc(-c2cc(-c3c[nH]nc3-c3ccccn3)ccn2)cc1)N1CCCC1 [GW792479X], the “%GFP+ rep 1” value (intracellular MRSA; [1]) is reported as 20.2%, the “%GFP+ rep 2” value (intracellular MRSA; [1]) is reported as 21.2% and the “%GFP+ rep 3” value (intracellular MRSA; [1]) is reported as 21.9%. The effect (intracellular MRSA; Yes/No call from z-scoreMRSA+) was “No”, the hit (intracellular MRSA; [2]) was “No” and the “z-scoreMRSA+ mean” value (intracellular MRSA; [3]) was 0.35. For the same molecule, the “z-scoreMRSA+ rep 1” value (intracellular MRSA; [3]) was 0.38, the “z-scoreMRSA+ rep 2” value (intracellular MRSA; [3]) was 0.49 and the “z-scoreMRSA+ rep 3” value (intracellular MRSA; [3]) was 0.18. The “cell count rep 1” value (HeLa cells; [4]) was 29405, the “cell count rep 2” value (HeLa cells; [5]) was 27776 and the “cell count rep 3” value (HeLa cells; [6]) was 26310. For the same molecule, the cell death (HeLa cells; Yes/No call from z-scoreHeLa) was “No”, the z-scoreHeLa mean (HeLa cells; [7]) was 0.58 and the “z-scoreHeLa rep 1” value (HeLa cells; [8]) was -0.13. For the same molecule, the “z-scoreHeLa rep 2” value (HeLa cells; [9]) was 0.43 and the “z-scoreHeLa rep 3” value (HeLa cells; [10]) was 1.44.
